Measurements reported in patent US10208030B2, “GPR119 agonist compounds” (Mankind Pharma Ltd., priority 2016, dated 2019).

What follows are compounds tested against T1, hGPR119 (Homo sapiens, UniProt Q8TDV5) (assay: In vitro cyclic AMP assay (Cisbio HTRF) in CHO-hGPR119 cells). Conditions: 1 h, cAMP, 1 μM, 60 min, read-out: Induction (% induction at 1 μM).
T1 construct: expressed in transfected cells; host or cells: CHO cells (CHO-hGPR119)
T1 sequence (Q8TDV5 1-335): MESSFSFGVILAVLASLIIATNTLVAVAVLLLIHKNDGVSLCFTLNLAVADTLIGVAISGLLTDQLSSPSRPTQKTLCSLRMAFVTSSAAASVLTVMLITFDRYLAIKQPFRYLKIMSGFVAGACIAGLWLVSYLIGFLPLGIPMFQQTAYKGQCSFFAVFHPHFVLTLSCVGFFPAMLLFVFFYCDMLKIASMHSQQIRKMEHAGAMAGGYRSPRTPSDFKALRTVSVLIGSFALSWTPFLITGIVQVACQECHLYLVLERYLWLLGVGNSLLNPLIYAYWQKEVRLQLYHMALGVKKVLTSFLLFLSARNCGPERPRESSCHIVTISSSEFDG
Format: cell-based
Description: cAMP measurements were done using Cisbio dynamic 2 HTRF kit according to the manufacturer's protocol. Briefly, CHO-hGPR119 cells were plated at a cell density of 5000 cells/well/5 μl into a white small volume 384 well plate. The final concentrations of IBMX and DMSO used were 1 mM and 0.5% respectively. Cells were treated with various concentrations of the test compound for 60 min at room temperature. Cells were lysed by buffer containing Anti-cAMP antibody and d2-cAMP reagents and incubated for 1 hour at room temperature. HTRF was measured at 337 nm excitation and emission wavelengths of 665 nm and 620 nm on a microplate reader (Flurostar, BMG Labtech). Graphpad prism software was utilized for EC50 determinations.

Going from `CC(C)c1noc(C2CCN(c3nn4cc(-c5ccncc5)nc4s3)CC2)n1` [Compound 1051, 3-isopropyl-5-(1-(6-(pyridin-4-yl)imidazo[2,1-b][1,3,4]thiadiazol-2-yl)piperidin-4-yl)-1,2,4-oxadiazole] to `CC(C)c1noc(C2CCN(c3nn4c(Cl)c(-c5ccncc5)nc4s3)CC2)n1` [Compound 1052, 5-(1-(5-chloro-6-(pyridin-4-yl)imidazo[2,1-b][1,3,4]thiadiazol-2-yl)piperidin-4-yl)-3-isopropyl-1,2,4-oxadiazole], the activation at 1 µM rises from 7% to 12%.

Going from `Cc1nc(S(C)(=O)=O)ccc1-c1cn2nc(O[C@@H](C)C3CCN(c4nc(C(C)C)no4)CC3)sc2n1` [Compound 1104, 2-((S)-1-(1-(3-isopropyl-1,2,4-oxadiazol-5-yl)piperidin-4-yl)ethoxy)-6-(2-methyl-6-(methylsulfonyl)pyridin-3-yl)imidazo[2,1-b][1,3,4]thiadiazole] to `CC(C)c1noc(N2CCC(C(C)Oc3nn4cc(-c5cnc(S(C)(=O)=O)nc5)nc4s3)CC2)n1` (centres unmarked) [Compound 1074, 2-(1-(1-(3-isopropyl-1,2,4-oxadiazol-5-yl)piperidin-4-yl)ethoxy)-6-(2-(methylsulfonyl)pyrimidin-5-yl)imidazo[2,1-b][1,3,4]thiadiazole], the activation at 1 µM falls from 46% to 44%.

First: CC(C)OC(=O)N1CCN(c2nsnc2Oc2ccc(-n3cnnn3)cc2)CC1 [Compound 1010, isopropyl 4-(4-(4-(1H-tetrazol-1-yl)phenoxy)-1,2,5-thiadiazol-3-yl)piperazine-1-carboxylate]
Second: CC(C)OC(=O)N1CCN(c2nn3cc(-c4ccc(S(C)(=O)=O)cc4)nc3s2)CC1 [Compound 1020, isopropyl 4-(6-(4-(methylsulfonyl)phenyl)imidazo[2,1-b][1,3,4]thiadiazol-2-yl)piperazine-1-carboxylate]
The activation at 1 µM of the first is higher: 2% for the first, 1% for the second.

Going from `CN(C)C(=O)N1CCC(c2nn3cc(-c4ccc(S(C)(=O)=O)cc4)nc3s2)CC1` [Compound 1033, N,N-dimethyl-4-(6-(4-(methylsulfonyl)phenyl)imidazo[2,1-b][1,3,4]thiadiazol-2-yl)piperidine-1-carboxamide] to `CN(c1nn2cc(-c3ccc(S(C)(=O)=O)cc3)nc2s1)C1CCN(C(N)=O)CC1` [Compound 1025, 4-(methyl(6-(4-(methylsulfonyl)phenyl)imidazo[2,1-b][1,3,4]thiadiazol-2-yl)amino)piperidine-1-carboxamide], the activation at 1 µM rises from 2% to 11%.

First: CC(C)c1noc(N2CCC(Oc3nc(-c4ccc(S(C)(=O)=O)cc4)ns3)CC2)n1 [Compound 1116, 4-(3-(4-(methylsulfonyl)phenyl)-1,2,4-thiadiazol-5-yloxy)-1-(3-isopropyl-1,2,4-oxadiazol-5-yl)piperidine]
Second: CC(C)c1noc(N2CCC(Oc3nn4cc(-c5ccc(S(C)(=O)=O)cc5)nc4s3)CC2)n1 [Compound 1018, 3-isopropyl-5-(4-((6-(4-(methylsulfonyl)phenyl)imidazo[2,1-b][1,3,4]thiadiazol-2-yl)oxy)piperidin-1-yl)-1,2,4-oxadiazole]
The activation at 1 µM of the first is higher: 36% for the first, 20% for the second.

Going from `C[C@H](Oc1nn2cc(-c3ccc(S(C)(=O)=O)cc3F)nc2s1)C1CCN(c2ncc(C(F)(F)F)cn2)CC1` [Compound 1098, 2-((S)-1-(1-(5-(trifluoromethyl)pyrimidin-2-yl)piperidin-4-yl)ethoxy)-6-(2-fluoro-4-(methylsulfonyl)phenyl)imidazo[2,1-b][1,3,4]thiadiazole] to `CCCc1cnc(N2CCC([C@H](C)Oc3nn4cc(-c5ccc(S(C)(=O)=O)cc5F)nc4s3)CC2)nc1` [Compound 1085, 2-((S)-1-(1-(5-propylpyrimidin-2-yl)piperidin-4-yl)ethoxy)-6-(2-fluoro-4-(methylsulfonyl)phenyl)imidazo[2,1-b][1,3,4]thiadiazole], the activation at 1 µM rises from 68% to 74%.

First: CC(C)c1noc(N2CCC(N(C)c3nc(-c4ccc(S(C)(=O)=O)nc4)ns3)CC2)n1 [Compound 1127, 1-(3-isopropyl-1,2,4-oxadiazol-5-yl)-N-methyl-N-(3-(6-(methylsulfonyl)pyridin-3-yl)-1,2,4-thiadiazol-5-yl)piperidin-4-amine]
Second: CC(C)c1noc(N2CCC(Oc3nc(N(C)c4ccc(S(C)(=O)=O)nc4)ns3)CC2)n1 [Compound 1124, N-(5-(1-(3-isopropyl-1,2,4-oxadiazol-5-yl)piperidin-4-yloxy)-1,2,4-thiadiazol-3-yl)-N-methyl-6-(methylsulfonyl)pyridin-3-amine]
The activation at 1 µM of the first is lower: 4% for the first, 6% for the second.

Going from `CCCc1cnc(N2CCC([C@H](C)Oc3nn4cc(-c5ccncc5F)nc4s3)CC2)nc1` [Compound 1082, 2-((S)-1-(1-(5-propylpyrimidin-2-yl)piperidin-4-yl)ethoxy)-6-(3-fluoropyridin-4-yl)imidazo[2,1-b][1,3,4]thiadiazole] to `CCCc1cnc(N2CCC(C(C)Oc3nn4cc(-c5ccc(C(=O)N(C)C)cc5)nc4s3)CC2)nc1` (centres unmarked) [Compound 1049, N,N-dimethyl-4-(2-(1-(1-(5-propylpyrimidin-2-yl)piperidin-4-yl)ethoxy)imidazo[2,1-b][1,3,4]thiadiazol-6-yl)benzamide], the activation at 1 µM falls from 80% to 55%.

Compared with `CC(C)c1noc(N2CCC(Oc3nn4cc(COc5ccc(S(C)(=O)=O)cc5)nc4s3)CC2)n1` [Compound 1042, 3-isopropyl-5-(4-((6-((4-(methylsulfonyl)phenoxy)methyl)imidazo[2,1-b][1,3,4]thiadiazol-2-yl)oxy)piperidin-1-yl)-1,2,4-oxadiazole], `CC(C)c1noc(N2CCC(N(C)c3nn4cc(-c5ccc(S(C)(=O)=O)cc5)nc4s3)CC2)n1` [Compound 1029, N-(1-(3-isopropyl-1,2,4-oxadiazol-5-yl)piperidin-4-yl)-N-methyl-6-(4-(methylsulfonyl)phenyl)imidazo[2,1-b][1,3,4]thiadiazol-2-amine] is higher in activation at 1 µM: 2% for the first, 9% for the second.

Going from `CC(C)c1noc(C2CCN(c3nn4cc(-c5ccc(C#N)cc5)nc4s3)CC2)n1` [Compound 1046, 4-(2-(4-(3-isopropyl-1,2,4-oxadiazol-5-yl)piperidin-1-yl)imidazo[2,1-b][1,3,4]thiadiazol-6-yl)benzonitrile] to `CS(=O)(=O)c1ccc(-c2cn3nc(N4CCC(c5nc(C6CC6)no5)CC4)sc3n2)cc1` [Compound 1045, 3-cyclopropyl-5-(1-(6-(4-(methylsulfonyl)phenyl)imidazo[2,1-b][1,3,4]thiadiazol-2-yl)piperidin-4-yl)-1,2,4-oxadiazole], the activation at 1 µM falls from 26% to 22%.

First: CC(C)c1noc(N2CCC(C(C)Oc3nn4cc(-c5ccc(Cl)nc5)nc4s3)CC2)n1 (centres unmarked) [Compound 1075, 2-(1-(1-(3-isopropyl-1,2,4-oxadiazol-5-yl)piperidin-4-yl)ethoxy)-6-(6-chloropyridin-3-yl)imidazo[2,1-b][1,3,4]thiadiazole]
Second: CC(C)c1noc(N2CCC([C@H](C)Oc3nn4cc(-c5cc[n+]([O-])cc5)nc4s3)CC2)n1 [Compound 1068, (S)-4-(2-(1-(1-(3-isopropyl-1,2,4-oxadiazol-5-yl)piperidin-4-yl)ethoxy)imidazo[2,1-b][1,3,4]thiadiazol-6-yl)pyridine 1-oxide]
The activation at 1 µM of the first is higher: 64% for the first, 59% for the second.

Compared with `CCc1cnc(N2CCC(Nc3nn4cc(-c5ccc(S(C)(=O)=O)cc5)nc4s3)CC2)nc1` [Compound 1023, N-(1-(5-ethylpyrimidin-2-yl)piperidin-4-yl)-6-(4-(methylsulfonyl)phenyl)imidazo[2,1-b][1,3,4]thiadiazol-2-amine], `CCc1cnc(N2CCC(c3nsnc3C(=O)Nc3ccc(S(C)(=O)=O)cc3F)CC2)nc1` [Compound 1015, 4-(1-(5-ethylpyrimidin-2-yl)piperidin-4-yl)-N-(2-fluoro-4-(methylsulfonyl)phenyl)-1,2,5-thiadiazole-3-carboxamide] is higher in activation at 1 µM: 0% for the first, 3% for the second.

Compared with `CC(C)c1noc(N2CCC(C(C)Oc3nn4cc(-c5ccc(C(=O)N(C)C)cc5)nc4s3)CC2)n1` (centres unmarked) [Compound 1048, 4-(2-(1-(1-(3-isopropyl-1,2,4-oxadiazol-5-yl)piperidin-4-yl)ethoxy)imidazo[2,1-b][1,3,4]thiadiazol-6-yl)-N,N-dimethylbenzamide], `CC(C)c1noc(C2CCN(c3nsnc3-c3ccc(S(C)(=O)=O)cc3)CC2)n1` [Compound 1007, 3-isopropyl-5-(1-(4-(4-(methylsulfonyl)phenyl)-1,2,5-thiadiazol-3-yl)piperidin-4-yl)-1,2,4-oxadiazole] is lower in activation at 1 µM: 56% for the first, -8% for the second.

First: CS(=O)(=O)c1ccc(OCc2cn3nc(C4CCN(Cc5ccccc5)CC4)sc3n2)cc1 [Compound 1038, 2-(1-benzylpiperidin-4-yl)-6-((4-(methylsulfonyl)phenoxy)methyl)imidazo[2,1-b][1,3,4]thiadiazole]
Second: CC(C)c1noc(C2CCN(c3nsnc3C(=O)Nc3ccc(S(C)(=O)=O)cc3F)CC2)n1 [Compound 1012, N-(2-fluoro-4-(methylsulfonyl)phenyl)-4-(4-(3-isopropyl-1,2,4-oxadiazol-5-yl)piperidin-1-yl)-1,2,5-thiadiazole-3-carboxamide]
The activation at 1 µM of the first is lower: 6% for the first, 22% for the second.

Same assay, conditions: cAMP, class symbols, legend not given

`CCCc1cnc(N2CCC([C@H](C)Oc3nn4cc(-c5ccc(S(C)(=O)=O)cc5F)nc4s3)CC2)nc1` [Compound 1085, 2-((S)-1-(1-(5-propylpyrimidin-2-yl)piperidin-4-yl)ethoxy)-6-(2-fluoro-4-(methylsulfonyl)phenyl)imidazo[2,1-b][1,3,4]thiadiazole] was tested, and the EC50 was “A++”.
